The results in this text go back to article PMC6482079 (European journal of pharmaceutical sciences : official …, 2019).

For experiment [1], the system named is B/Wisconsin/1/2010 (Yamagata). Put plainly: Plaque reduction assay in ST6Gal I-overexpressing MDCK cells. It counts as cell-based, influenza B virus. The note with it: for Drug sensitivity: sensitivity of the strain to the named drug. Background: In a plaque reduction assay, fewer plaques than in the control indicate reduced infectivity or spread.
Experiment [2] relates to B/Bris/60/2008 (Victoria). The experiment is described as above. The class given is cell-based, influenza B virus. Conditions: for Drug sensitivity: sensitivity of the strain to the named drug.

For `CCC(CC)O[C@@H]1C=C(C(=O)O)C[C@H](N)[C@H]1NC(C)=O` [Oseltamivir carboxylate], the Drug sensitivity entry in experiment [1] and in experiment [2] was “Sensitive” in each case.

Turning to `NC12CC3CC(CC(C3)C1)C2` [Amantadine, amantadine], the Drug sensitivity entry in experiment [1] and in experiment [2] was “Resistant” each time.

Take `Cc1cc(OCc2nnc(SC3CCCC3)n2-c2cccnc2)ccc1-c1ccc(S(C)(=O)=O)cc1` [NMS-873]: the “SI (selectivity index)” value in experiment [1] (CC50/EC50) is listed as 78; in experiment [2] (CC50/EC50) it was 97. In addition, the EC50 in experiment [1] (Influenza B virus, MDCK) came to 35 ± 5 nM; in experiment [2] (Influenza B virus, MDCK), 28 ± 8 nM.

In general, EC50 refers to the concentration needed to bring the measured effect to its halfway point.
